In patent US20260334439A1, “BCAT2 INHIBITORS” (Agios Pharmaceuticals, Inc., priority 2023, published 2026):

How the values were obtained:
BCAT2 [1] = target: T1, BCAT2 (Homo sapiens, UniProt O15382); assay: BCAT2 in vitro enzyme inhibition assay (hBCAT2, glutamate dehydrogenase/diaphorase/resazurin coupled fluorescence read); assay type: biochemical; conditions: hBCAT2, 1 h preincubation at 25° C., one hour reaction; average where tested multiple times
T1 sequence (O15382 28-392): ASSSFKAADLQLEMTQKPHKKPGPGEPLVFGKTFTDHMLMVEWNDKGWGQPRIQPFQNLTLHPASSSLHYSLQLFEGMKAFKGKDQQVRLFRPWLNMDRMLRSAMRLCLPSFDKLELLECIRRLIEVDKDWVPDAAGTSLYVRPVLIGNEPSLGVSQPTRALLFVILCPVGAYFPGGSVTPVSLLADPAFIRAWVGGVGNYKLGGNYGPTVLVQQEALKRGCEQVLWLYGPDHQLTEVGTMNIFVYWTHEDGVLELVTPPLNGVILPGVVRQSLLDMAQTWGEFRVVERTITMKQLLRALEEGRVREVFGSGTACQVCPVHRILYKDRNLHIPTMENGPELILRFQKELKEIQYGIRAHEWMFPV
Outline: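 hBCAT2 (0.33 μg/mL in mix) preincubated 1 h at 25 °C with compound (top 100 μM, 3-fold, 10 points) in Tris pH 8.0/NaCl/BSA; substrate mix added (L-leucine, α-ketoglutarate, GDH, NAD, diaphorase, resazurin), quenched with SDS after 1 h, fluorescence Ex 540/Em 590; duplicates, repeat tests averaged.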

BCAT2 [2] = target: T1, BCAT2; assay: BCAT2 cell inhibition using engineered A549 cells (MUT KO, BCAT1 KO; 13C6-KMV formation by LC-MS/MS); assay type: cell-based; design: expressed endogenous BCAT2; endogenous in cells; host or cells: A549 cells, MUT knockout and BCAT1 knockout
Outline: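 Medium 13C6-KMV formation is read by LC-MS/MS after PFBHA derivatization with d8-KMV internal standard. Cells are CRISPR MUT/BCAT1 double-knockout A549 expressing endogenous BCAT2, given compound 15 min before labelled isoleucine (800 uM, added 1:1) for 24 h. CTG viability run in parallel; replicates averaged.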

[3] = read-out: BCAT2 Cell Inhibition (IC50), engineered A549 cells, 24 hours, 13C6-KMV in media, average where tested multiple times

| IC50 (BCAT2 [1]) [nM] | IC50 (BCAT2 [2]; [3]) [nM] | IC50 (BCAT2 [2]) [nM] | SMILES |
| --- | --- | --- | --- |
| < 100 | > 1000 |  | CN(C)CCOc1ccc(Cl)cc1C(=O)N[C@H]1CCC[C@@H](n2c(-c3ccccc3F)nc3cnc(-c4nc[nH]n4)cc32)C1 [Example 55, 5-chloro-2-(2-(dimethylamino)ethoxy)-N-((1S,3R)-3-(2-(2-fluorophenyl)-6-(1H-1,2,4-triazol-3-yl)-1H-imidazo[4,5-c]pyridin-1-yl)cyclohexyl)benzamide] |
| < 100 |  | < 100 | CCOc1ncc(Cl)cc1C(=O)N[C@H]1CCC[C@@H](n2c(-c3ccccc3F)nc3cnc(-c4nc[nH]n4)cc32)C1 [Example 23, 5-chloro-2-ethoxy-N-((1S,3R)-3-(2-(2-fluorophenyl)-6-(1H-1,2,4-triazol-3-yl)-1H-imidazo[4,5-c]pyridin-1-yl)cyclohexyl)nicotinamide] |
| < 100 |  | < 100 | CN1CC(NC(=O)c2cc(Cl)ccc2O)C[C@H](n2c(-c3ccccc3F)nc3cnc(-c4nc[nH]n4)cc32)C1 (stereo in doubt) [Example 143, 5-chloro-N-(5-(2-(2-fluorophenyl)-6-(1H-1,2,4-triazol-3-yl)-1H-imidazo[4,5-c]pyridin-1-yl)-1-methylpiperidin-3-yl)-2-hydroxybenzamide] |
| < 100 |  | < 100 | O=C(N[C@H]1CCC[C@@H](n2c(-c3ccccc3F)nc3cnc(-c4nc[nH]n4)cc32)C1)c1cc(F)ccn1 [Example 14, 4-fluoro-N-((1S,3R)-3-(2-(2-fluorophenyl)-6-(1H-1,2,4-triazol-3-yl)-1H-imidazo[4,5-c]pyridin-1-yl)cyclohexyl)picolinamide] |
| < 100 |  | < 100 | O=C1c2cc(Cl)ccc2OCN1[C@H]1CCC[C@@H](n2c(-c3ccccc3F)nc3cnc(-n4nccn4)cc32)[C@@H]1O [Example 214, 6-chloro-3-((1S,2S,3R)-3-(2-(2-fluorophenyl)-6-(2H-1,2,3-triazol-2-yl)-1H-imidazo[4,5-c]pyridin-1-yl)-2-hydroxycyclohexyl)-2,3-dihydro-4H-benzo[e][1,3]oxazin-4-one] |
| < 100 |  | < 100 | O=C(N[C@H]1CCC[C@@H](n2c(-c3ccccc3OC(F)F)nc3cnc(-c4nc[nH]n4)cc32)C1)c1cc(Cl)ccc1O [compound 69] |
| < 100 |  | 100 to 500 | O=C(N[C@H]1CCC[C@@H](n2c(-c3ccccn3)nc3cnc(-c4nc[nH]n4)cc32)C1)c1cc(Cl)ccn1 [Example 25, 4-chloro-N-((1S,3R)-3-(2-(pyridin-2-yl)-6-(1H-1,2,4-triazol-3-yl)-1H-imidazo[4,5-c]pyridin-1-yl)cyclohexyl)picolinamide] |
| < 100 |  | < 100 | CCOc1ccc(Cl)cc1C(=O)N[C@H]1CCC[C@@H](n2c(-c3ccccc3F)nc3cnc(-c4nc[nH]n4)cc32)C1 [Example 6, 5-chloro-2-ethoxy-N-((1S,3R)-3-(2-(2-fluorophenyl)-6-(1H-1,2,4-triazol-3-yl)-1H-imidazo[4,5-c]pyridin-1-yl)cyclohexyl)benzamide] |
| < 100 |  | < 100 | CO[C@H]1C[C@H](NC(=O)c2cc(F)ccn2)C[C@H](n2c(-c3ccccc3F)nc3cnc(-c4nc[nH]n4)cc32)C1 [Example 113, 4-fluoro-N-((1R,3S,5S)-3-(2-(2-fluorophenyl)-6-(1H-1,2,4-triazol-3-yl)-1H-imidazo[4,5-c]pyridin-1-yl)-5-methoxycyclohexyl)picolinamide] |
| < 100 |  | < 100 | O=C(N[C@H]1CCC[C@@H](n2c(-c3c(O)cccc3F)nc3cnc(-c4nc[nH]n4)cc32)C1)c1cc(Cl)ccn1 [Example 70, 4-chloro-N-((1S,3R)-3-(2-(2-fluoro-6-hydroxyphenyl)-6-(1H-1,2,4-triazol-3-yl)-1H-imidazo[4,5-c]pyridin-1-yl)cyclohexyl)picolinamide] |
| < 100 |  | < 100 | O=C1c2cc(Cl)ccc2NCN1[C@H]1CCC[C@@H](n2c(-c3ccccc3F)nc3cnc(-c4nc[nH]n4)cc32)C1 [Example 206, 6-chloro-3-((1S,3R)-3-(2-(2-fluorophenyl)-6-(1H-1,2,4-triazol-3-yl)-1H-imidazo[4,5-c]pyridin-1-yl)cyclohexyl)-2,3-dihydroquinazolin-4(1H)-one] |
| < 100 |  | 100 to 500 | COc1ccc(Cl)cc1C(=O)N[C@@H]1C[C@H](n2c(-c3ccccc3F)nc3cnc(-c4nc[nH]n4)cc32)CN(C)C1 [Example 136, 5-chloro-N-((3R,5S)-5-(2-(2-fluorophenyl)-6-(1H-1,2,4-triazol-3-yl)-1H-imidazo[4,5-c]pyridin-1-yl)-1-methylpiperidin-3-yl)-2-methoxybenzamide] |
| < 100 |  | < 100 | N#Cc1ccccc1-c1nc2cnc(-c3nc[nH]n3)cc2n1[C@@H]1CCC[C@H](N2Cc3ccc(F)cc3C2=O)C1 [Example 171, 2-(1-((1R,3S)-3-(6-fluoro-1-oxoisoindolin-2-yl)cyclohexyl)-6-(1H-1,2,4-triazol-3-yl)-1H-imidazo[4,5-c]pyridin-2-yl)benzonitrile] |
| < 100 |  | < 100 | O=C(N[C@H]1CCC[C@@H](n2c(-c3ccccc3OC(F)F)nc3cnc(-c4nc[nH]n4)cc32)C1)c1cc(F)ccn1 [compound 30] |
| 100 to 500 | > 1000 |  | COc1ccc(Cl)cc1C(=O)N[C@@H]1C[C@H](n2c(-c3ncccc3F)nc3cnc(-c4nc[nH]n4)cc32)CN(C)C1 [Example 137, 5-chloro-N-((3R,5S)-5-(2-(3-fluoropyridin-2-yl)-6-(1H-1,2,4-triazol-3-yl)-1H-imidazo[4,5-c]pyridin-1-yl)-1-methylpiperidin-3-yl)-2-methoxybenzamide] |
| < 100 |  | 100 to 500 | O=C1c2ccc(F)cc2CN1[C@H]1CCC[C@@H](n2c(-c3ccccc3F)nc3cnc(-c4nc[nH]n4)cc32)C1 [Example 176, 5-fluoro-2-((1S,3R)-3-(2-(2-fluorophenyl)-6-(1H-1,2,4-triazol-3-yl)-1H-imidazo[4,5-c]pyridin-1-yl)cyclohexyl)isoindolin-1-one] |
| < 100 |  | < 100 | O=C1c2cc(F)ccc2OCN1[C@H]1CCC[C@@H](n2c(-c3ccccc3OC(F)F)nc3cnc(-c4nc[nH]n4)cc32)C1 [compound 211] |
| < 100 |  | < 100 | CN1C[C@H](NC(=O)c2cc(F)ccn2)C[C@H](n2c(-c3ccccc3OC(F)F)nc3cnc(-c4nc[nH]n4)cc32)C1 [compound 139] |
| < 100 |  | < 100 | CC(C)Oc1ccc(Cl)cc1C(=O)N[C@H]1CCC[C@@H](n2c(-c3ccccc3C#N)nc3cnc(-c4nc[nH]n4)cc32)C1 [Example 36, 5-chloro-N-((1S,3R)-3-(2-(2-cyanophenyl)-6-(1H-1,2,4-triazol-3-yl)-1H-imidazo[4,5-c]pyridin-1-yl)cyclohexyl)-2-isopropoxybenzamide] |
| < 100 |  | < 100 | O=C1c2cc(Cl)ccc2CN1[C@H]1CCC[C@@H](n2c(-c3ccccc3OCCO)nc3cnc(-c4nc[nH]n4)cc32)C1 [Example 172, 6-chloro-2-((1S,3R)-3-(2-(2-(2-hydroxyethoxy)phenyl)-6-(1H-1,2,4-triazol-3-yl)-1H-imidazo[4,5-c]pyridin-1-yl)cyclohexyl)isoindolin-1-one] |
